We go through 2 compounds from patent US20050163852A1, “Process for loading and thermodynamically activating drungs on polymers by means of supercritical fluids” (priority 2002, published 2005).

This data set can be described thus: Activation level by Differential Scanning Calorimetry (fraction of crystalline form). The settings on record: DSC, ΔHmelting/ΔH0 normalized to drug assayed in the polymer. It is filed as physicochemical. The procedure: The presence of amorphous, nanocrystalline or crystal phase can be detected by means of Differential Scanning Calorimetry (DSC). Compared to the sharp melting peak of the drug crystal, the nanocrystals present a broader peak with a markedly lower maximum of temperature (I. Colombo et al. 4th Int. Conf. Pharm. Technol., 1986; F. Carli et al. Acta Pharm. Jugosl. 38, 361, 1988).
In the examples, the activation level is expressed as the fraction of crystalline form. It is determined by comparing the enthalpy relative to the melting of the crystals in the polymer (ΔHmelting) to that of pure drug (ΔH0). The ΔHmelting/ΔH0 ratio, normalized in accordance with the drug assayed in the polymer, is then considered equal to the fraction of crystalline form. The higher the amount of crystals (higher crystallinity), the lower the thermodynamic activation level of the drug.

As to `CC(C)Cc1ccc(C(C)C(=O)O)cc1` (stereo not drawn) [Ibuprofen, ibuprofen], the Crystallinity worked out at 100% (ibuprofen, supercritical CO2) and 100% (ibuprofen, supercritical ethylene).

For `CS(=O)(=O)Nc1ccc([N+](=O)[O-])cc1Oc1ccccc1` [Nimesulide, nimesulide], the Crystallinity (nimesulide, supercritical CO2) came out at 100%.
